This passage reports inhibition, Ratio and IC50 results from ChEMBL document CHEMBL1157646, “Melanogenesis inhibitors from the desert plant Anastatica hierochuntica in B16 melanoma cells” (Bioorg Med Chem, 2010).

Calls of active or inactive are those of the source. No cut-off for these calls is given here.

Data set [1] in a line: cells. The following applies: Mus musculus, B16-4A5, 72 h, read-out: INH.
Description: Inhibition of theophylline-stimulated melanogenesis in mouse B16-4A5 cells at 30 uM after 72 hrs
Data set [2] can be described thus: Inhibition of theophylline-stimulated melanogenesis in mouse B16-4A5 cells at 1000 uM after 72 hrs. In kind it is functional. The following applies: B16-4A5, 72 h.
Data set [3] is described as follows: cells. The conditions noted are these: Mus musculus, B16-4A5, 72 h, read-out: INH. This is another data set of the same source.
Description: Inhibition of theophylline-stimulated melanogenesis in mouse B16-4A5 cells at 10 uM after 72 hrs
Data set [4] can be described thus: Inhibition of theophylline-stimulated melanogenesis in mouse B16-4A5 cells at 100 uM after 72 hrs. In kind it is functional. The following applies: B16-4A5, 72 h.
Data set [5] is described as follows: Inhibition of theophylline-stimulated melanogenesis in mouse B16-4A5 cells at 300 uM after 72 hrs. In kind it is functional. The conditions noted are these: B16-4A5, 72 h.
Data set [6] can be described thus: Effect on tyrosinase mRNA expression in mouse B16-4A5 cells assessed as tyrosinase mRNA/beta-actin mRNA expression ratio at 1 uM in presence of 1 mM theophylline after 72 hrs by RT-PCR. In kind it is functional.
A short description of data set [7]: Effect on TRP2 mRNA expression in mouse B16-4A5 cells assessed as TRP2 mRNA/beta-actin mRNA expression ratio at 30 uM in presence of 1 mM theophylline after 72 hrs by RT-PCR. In kind it is functional.
Data set [8] in a line: Effect on tyrosinase mRNA expression in mouse B16-4A5 cells assessed as tyrosinase mRNA/beta-actin mRNA expression ratio at 10 uM in presence of 1 mM theophylline after 72 hrs by RT-PCR. In kind it is functional.
Data set [9] can be described thus: Effect on TRP1 mRNA expression in mouse B16-4A5 cells assessed as TRP1 mRNA/beta-actin mRNA expression ratio at 3 uM in presence of 1 mM theophylline after 72 hrs by RT-PCR. In kind it is functional.
Data set [10] in a line: Toxicity in mouse B16-4A5 cells assessed as inhibition of cell proliferation at 1 uM in presence of 1 mM theophylline after 72 hrs by WST8 dye reduction assay. In kind it is cell-based.
Data set [11] can be described thus: cells. The following applies: Mus musculus, B16-4A5, 72 h, read-out: INH. This is another data set of the same source.
Description: Inhibition of theophylline-stimulated melanogenesis in mouse B16-4A5 cells at 3 uM after 72 hrs
Data set [12] is described as follows: Effect on TRP2 mRNA expression in mouse B16-4A5 cells assessed as TRP2 mRNA/beta-actin mRNA expression ratio at 3 uM in presence of 1 mM theophylline after 72 hrs by RT-PCR. In kind it is functional.
Data set [13] is described as follows: Toxicity in mouse B16-4A5 cells assessed as inhibition of cell proliferation in presence of 1 mM theophylline after 72 hrs by WST8 dye reduction assay. In kind it is cell-based.
Data set [14] can be described thus: Toxicity in mouse B16-4A5 cells assessed as inhibition of cell proliferation at 10 uM in presence of 1 mM theophylline after 72 hrs by WST8 dye reduction assay. In kind it is cell-based.
Data set [15] has as its target T1, Tyrosinase (Agaricus bisporus) (UniProt O42713).
T1 sequence (whole entry): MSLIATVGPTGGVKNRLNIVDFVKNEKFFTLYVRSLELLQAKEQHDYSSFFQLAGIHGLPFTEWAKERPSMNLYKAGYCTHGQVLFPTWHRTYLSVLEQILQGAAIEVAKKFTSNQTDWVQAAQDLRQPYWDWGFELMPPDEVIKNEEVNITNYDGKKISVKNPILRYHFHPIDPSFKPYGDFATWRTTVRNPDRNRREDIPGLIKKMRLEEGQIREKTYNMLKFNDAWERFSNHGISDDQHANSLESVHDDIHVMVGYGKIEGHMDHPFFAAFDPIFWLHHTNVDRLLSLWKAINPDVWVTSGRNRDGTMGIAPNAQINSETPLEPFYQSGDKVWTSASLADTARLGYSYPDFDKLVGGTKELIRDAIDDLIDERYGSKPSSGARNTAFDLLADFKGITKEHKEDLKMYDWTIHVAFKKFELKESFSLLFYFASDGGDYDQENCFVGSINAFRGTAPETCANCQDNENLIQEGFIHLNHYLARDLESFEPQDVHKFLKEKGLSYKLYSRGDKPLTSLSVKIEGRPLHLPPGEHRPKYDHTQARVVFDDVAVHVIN
Put plainly: Inhibition of mushroom tyrosinase at 1 uM.

A short description of data set [16]: Toxicity in mouse B16-4A5 cells assessed as inhibition of cell proliferation at 30 uM in presence of 1 mM theophylline after 72 hrs by WST8 dye reduction assay. In kind it is cell-based.
Data set [17] can be described thus: Effect on tyrosinase mRNA expression in mouse B16-4A5 cells assessed as tyrosinase mRNA/beta-actin mRNA expression ratio at 30 uM in presence of 1 mM theophylline after 72 hrs by RT-PCR. In kind it is functional.
Data set [18] addresses T2, Mitogen-activated protein kinase 1 and 3 (ERK2 and ERK1) (Mus musculus) (UniProt P63085+Q63844). Put plainly: Inhibition of ERK1/2 phosphorylation in mouse B16-4A5 cells at 10 to 30 uM in presence of 1 mM theophylline after 72 hrs by immunoblot. In kind it is cell-based.
A short description of data set [19]: Effect on tyrosinase mRNA expression in mouse B16-4A5 cells assessed as tyrosinase mRNA/beta-actin mRNA expression ratio at 3 uM in presence of 1 mM theophylline after 72 hrs by RT-PCR. In kind it is functional.
The nature of data set [20]: Effect on TRP2 mRNA expression in mouse B16-4A5 cells assessed as TRP2 mRNA/beta-actin mRNA expression ratio at 1 uM in presence of 1 mM theophylline after 72 hrs by RT-PCR. In kind it is functional.
Data set [21] in a line: Effect on TRP1 mRNA expression in mouse B16-4A5 cells assessed as TRP1 mRNA/beta-actin mRNA expression ratio at 30 uM in presence of 1 mM theophylline after 72 hrs by RT-PCR. In kind it is functional.
Data set [22] in a line: Toxicity in mouse B16-4A5 cells assessed as inhibition of cell proliferation at 3 uM in presence of 1 mM theophylline after 72 hrs by WST8 dye reduction assay. In kind it is cell-based.
Data set [23] in a line: cells. The following applies: Mus musculus, B16-4A5, 72 h, read-out: INH. This is another data set of the same source.
Description: Inhibition of theophylline-stimulated melanogenesis in mouse B16-4A5 cells at 1 uM after 72 hrs
The target of data set [24] is T1, Tyrosinase (Agaricus bisporus). Put plainly: Inhibition of mushroom tyrosinase at 3 uM.
Data set [25] can be described thus: Effect on TRP1 mRNA expression in mouse B16-4A5 cells assessed as TRP1 mRNA/beta-actin mRNA expression ratio at 1 uM in presence of 1 mM theophylline after 72 hrs by RT-PCR. In kind it is functional.
Data set [26] is described as follows: Effect on TRP2 mRNA expression in mouse B16-4A5 cells assessed as TRP2 mRNA/beta-actin mRNA expression ratio at 10 uM in presence of 1 mM theophylline after 72 hrs by RT-PCR. In kind it is functional.
Data set [27] can be described thus: Effect on TRP1 mRNA expression in mouse B16-4A5 cells assessed as TRP1 mRNA/beta-actin mRNA expression ratio at 10 uM in presence of 1 mM theophylline after 72 hrs by RT-PCR. In kind it is functional.
The target in the next data set is T3, Tyrosinase (Agaricus bisporus, UniProt O42713).
T3 sequence (O42713 whole entry): T1 sequence (whole entry)
The data set is described as follows: Inhibition of mushroom tyrosinase.

Data set [28] addresses T1, Tyrosinase (Agaricus bisporus). The data set is described as follows: Inhibition of mushroom tyrosinase assessed as inhibition of melanin production from dopachrome by autoxidation at 100 uM.
Data set [29] addresses T2, Mitogen-activated protein kinase 1 and 3 (ERK2 and ERK1) (Mus musculus). Put plainly: Inhibition of ERK1/2 phosphorylation in mouse B16-4A5 cells at 100 uM in presence of 1 mM theophylline after 72 hrs by immunoblot. In kind it is cell-based.

T2 sequence (P63085 whole entry, looked up): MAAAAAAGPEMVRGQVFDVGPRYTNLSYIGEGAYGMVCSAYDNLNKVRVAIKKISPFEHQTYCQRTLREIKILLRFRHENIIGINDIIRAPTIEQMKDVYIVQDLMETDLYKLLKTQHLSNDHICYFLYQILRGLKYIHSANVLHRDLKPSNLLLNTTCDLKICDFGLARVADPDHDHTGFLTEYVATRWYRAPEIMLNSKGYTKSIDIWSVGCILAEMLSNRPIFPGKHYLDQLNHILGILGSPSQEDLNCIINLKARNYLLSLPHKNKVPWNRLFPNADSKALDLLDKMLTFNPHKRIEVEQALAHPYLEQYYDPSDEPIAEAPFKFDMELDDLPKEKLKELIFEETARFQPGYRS
T2 sequence (Q63844 whole entry, looked up): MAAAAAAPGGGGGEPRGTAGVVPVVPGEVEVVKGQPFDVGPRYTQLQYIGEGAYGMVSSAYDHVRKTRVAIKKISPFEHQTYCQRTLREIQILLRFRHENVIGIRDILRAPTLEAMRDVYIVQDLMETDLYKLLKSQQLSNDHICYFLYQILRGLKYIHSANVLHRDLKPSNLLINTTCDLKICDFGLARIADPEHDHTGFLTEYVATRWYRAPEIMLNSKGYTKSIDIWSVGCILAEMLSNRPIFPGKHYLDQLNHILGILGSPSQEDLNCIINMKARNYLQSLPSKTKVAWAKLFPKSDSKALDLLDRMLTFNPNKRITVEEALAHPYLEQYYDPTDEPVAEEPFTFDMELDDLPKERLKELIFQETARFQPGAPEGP

For `OC[C@H]1O[C@@H](Oc2ccc(O)cc2)[C@H](O)[C@@H](O)[C@@H]1O` [ARBUTIN], in the data set “cells [1]”, the inhibition at 30 µM stood at 20.4%. Moreover, in data set [2], the inhibition at 1000 µM came to 83.7%. In addition, the inhibition at 10 µM in “cells [3]” came to 10.6%. The inhibition at 100 µM in [4] is 38.1%. Besides, the inhibition at 300 µM in [5] came to 61.5%.
`COc1cc([C@@H]2Oc3cc([C@H]4Oc5cc(O)cc(O)c5C(=O)[C@@H]4O)ccc3O[C@H]2CO)ccc1O` [SILYBIN B]: the Ratio in [6] is listed as 0.89; in data set [7], 1.03; in data set [8], 1.27; in [9], 1.12; in [12], 1.31; in data set [17] it was 0.59. For the same compound, the Ratio is on record as 0.95 in data set [19]; 0.78 in data set [20]; 0.73 in data set [21]; 0.88 in data set [25]; 1.69 in data set [26]; 1.35 in [27]. In addition, in data set [10], the inhibition at 72 h, 1 µM was -2%. In addition, the inhibition at 3 µM in the data set “cells [11]” stood at 3%. In the data set “cells [1]”, the inhibition at 30 µM is 33%. Also, the IC50 at 72 h in [13] is more than 100 µM. Further, in data set [14], the inhibition at 72 h, 10 µM was determined as 11.8%. Further, the inhibition in [15] was found to be 5.7%; in data set [24] it was 8.4%. Also, the inhibition at 72 h, 30 µM in [16] is 44.4%. Moreover, the inhibition result in data set [18] was “Active”. For the same compound, in the data set “cells [3]”, the inhibition at 10 µM was 10.2%. Further, the inhibition at 72 h, 3 µM in data set [22] is -1.4%. For the same compound, the inhibition at 1 µM in “cells [23]” was -0.2%.
For `O=c1c(O)c(-c2ccc(O)c(O)c2)oc2cc(O)cc(O)c12` [QUERCETIN], the IC50 against Tyrosinase came out at 31 µM. The inhibition at 72 h, 1 µM in data set [10] was -8.8%. Also, the inhibition at 3 µM in “cells [11]” came to 17.1%. Moreover, the inhibition entry in [28] is “inactive”. The inhibition at 30 µM in the data set “cells [1]” was 72.5%. Further, the inhibition at 72 h, 10 µM in [14] was -8.6%. In addition, the inhibition came to 3.5% in [15] and 4.8% in data set [24]. Further, the inhibition at 72 h, 30 µM in data set [16] stood at 11.9%. Moreover, the inhibition at 10 µM in “cells [3]” came to 34.3%. Moreover, the inhibition at 72 h, 3 µM in data set [22] is -7.7%. Further, in “cells [23]”, the inhibition at 1 µM amounted to 13.9%.
As to `COc1cc([C@H]2Oc3cc([C@H]4Oc5cc(O)cc(O)c5C(=O)[C@@H]4O)ccc3O[C@@H]2CO)ccc1O` [SILYBIN A], the Ratio amounted to 0.92 in [6]; 1.6 in data set [7]; 1.93 in [8]; 0.89 in [9]; 1 in [12]; 2.11 in [17]. Also, the Ratio in data set [19] stood at 1.12; in [20], 0.95; in [21], 1.07; in data set [25] it was 0.79; in data set [26], 2; in data set [27] it was 1.6. Besides, in data set [10], the inhibition at 72 h, 1 µM was -5.7%. Further, the inhibition at 3 µM in “cells [11]” came to 18.8%. Also, the inhibition entry in data set [28] was “inactive”. Also, the inhibition at 30 µM in “cells [1]” was 64.7%. Besides, the inhibition result in [29] was “Active”. Also, the IC50 at 72 h in data set [13] was more than 100 µM. In [14], the inhibition at 72 h, 10 µM was determined as 7.5%. For the same compound, the inhibition in data set [15] worked out at 8.4%; in data set [24] it was 10.3%. In data set [16], the inhibition at 72 h, 30 µM came out at 33.8%. The inhibition at 10 µM in the data set “cells [3]” is 24.4%. For the same compound, the inhibition at 72 h, 3 µM in [22] was -10.7%. Further, the inhibition at 1 µM in “cells [23]” was 9.2%.
